Assay results: ChEMBL document CHEMBL4376865, “Discovery and Characterization of 1H-1,2,3-Triazole Derivatives as Novel Prostanoid EP4 Receptor Antagonists for Cancer Immunotherapy” (J Med Chem, 2020); call rule not given here

Columns and labels:
[1] = biological target: Cytochrome P450 3A4 (Homo sapiens, UniProt P08684); test: Inhibition of CYP3A4 in human liver microsomes at 20 uM using testosterone as substrate incubated for 60 mins by HPLC analysis; format: ADME; settings: 1 h
[2] = biological target: CYP2E1 (Homo sapiens, UniProt P05181); test: Inhibition of CYP2E1 in human liver microsomes at 20 uM using chlorzoxazone as substrate incubated for 60 mins by HPLC analysis relative to control; format: ADME; settings: probe chlorzoxazone
[3] = biological target: Prostaglandin E2 receptor EP4 subtype (Mus musculus, UniProt P32240); test: Antagonist activity at mouse EP4 expressed in CHO cells coexpressing G16-alpha assessed as intracellular calcium flux preincubated for 15 mins followed by addition of PGE2 by calcium flux assay; format: functional, cell-based
[4] = tested on: CT26; test: Antitumor activity against mouse CT26 cells xenografted in BALB/c mouse assessed as tumor growth inhibition at 150 mg/kg, po administerd daily and measured after two weeks; settings: 336 h, read-out: TGI
[5] = biological target: CYP2D6 (Homo sapiens, UniProt P10635); test: Inhibition of CYP2D6 in human liver microsomes at 20 uM using dextromethorphan as substrate incubated for 60 mins by HPLC analysis relative to control; format: ADME; settings: probe dextromethorphan
[6] = tested on: CT26; test: Antitumor activity against mouse CT26 cells xenografted in BALB/c mouse assessed as tumor growth inhibition at 50 mg/kg, po administerd daily and measured after two weeks; settings: 336 h, read-out: TGI
[7] = Metabolic stability in human liver microsomes assessed as compound remaining at 10 uM incubated for 1 hr
[8] = biological target: Prostaglandin E2 receptor EP2 subtype (Homo sapiens, UniProt P43116)
Description: Antagonist activity at human EP2 expressed in CHO cells coexpressing G16-alpha assessed as intracellular calcium flux preincubated for 15 mins followed by addition of PGE2 by calcium flux assay

[9] = biological target: CYP2C9 (Homo sapiens, UniProt P11712); test: Inhibition of CYP2C9 in human liver microsomes at 20 uM using tolbutamide as substrate incubated for 60 mins by HPLC analysis relative to control; format: ADME; settings: probe tolbutamide
[10] = in vitro; settings: human, liver microsomes
[11] = biological target: Prostaglandin E2 receptor EP4 subtype (Homo sapiens, UniProt P35408); test: Inhibition of human EP4 transfected in human HEK293 cells co transfected with CRE-luciferase assessed as reduction in PGE2-induced luciferase expression incubated for 24 hrs by luciferase reporter gene Assay
[12] = in vitro; settings: human, liver microsomes; remark: listed apart in the source
[13] = Metabolic stability in CD1 mouse liver microsomes assessed as compound remaining at 10 uM incubated for 1 hr

Sequence of CYP2D6 (P10635 whole entry): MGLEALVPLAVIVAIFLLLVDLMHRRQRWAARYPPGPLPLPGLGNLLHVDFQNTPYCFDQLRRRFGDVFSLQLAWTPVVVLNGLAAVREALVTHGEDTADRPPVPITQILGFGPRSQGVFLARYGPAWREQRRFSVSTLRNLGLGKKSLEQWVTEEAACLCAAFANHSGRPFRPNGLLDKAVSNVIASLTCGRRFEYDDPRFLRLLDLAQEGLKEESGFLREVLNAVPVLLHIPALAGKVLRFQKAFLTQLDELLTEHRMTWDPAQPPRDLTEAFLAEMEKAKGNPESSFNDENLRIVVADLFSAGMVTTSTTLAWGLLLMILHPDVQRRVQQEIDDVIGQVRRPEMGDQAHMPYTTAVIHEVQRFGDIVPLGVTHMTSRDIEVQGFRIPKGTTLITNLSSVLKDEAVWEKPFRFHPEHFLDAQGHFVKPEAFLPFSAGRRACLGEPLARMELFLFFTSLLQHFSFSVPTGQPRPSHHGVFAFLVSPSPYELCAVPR
Sequence of Prostaglandin E2 receptor EP4 subtype (Mus musculus, UniProt P32240) (P32240 whole entry): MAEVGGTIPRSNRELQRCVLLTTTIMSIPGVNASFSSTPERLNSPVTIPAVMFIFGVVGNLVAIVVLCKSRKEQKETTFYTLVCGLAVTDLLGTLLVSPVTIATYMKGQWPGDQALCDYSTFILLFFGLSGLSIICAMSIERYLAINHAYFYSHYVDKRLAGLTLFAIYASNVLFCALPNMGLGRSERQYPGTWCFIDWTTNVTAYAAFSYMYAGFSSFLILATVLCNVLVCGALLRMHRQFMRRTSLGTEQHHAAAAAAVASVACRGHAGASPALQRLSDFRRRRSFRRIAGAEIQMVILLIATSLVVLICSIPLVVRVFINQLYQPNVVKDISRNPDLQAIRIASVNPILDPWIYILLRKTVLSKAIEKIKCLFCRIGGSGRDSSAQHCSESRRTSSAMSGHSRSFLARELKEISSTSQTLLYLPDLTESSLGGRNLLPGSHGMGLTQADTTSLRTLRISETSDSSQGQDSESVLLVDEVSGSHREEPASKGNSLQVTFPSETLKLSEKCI
Sequence of Prostaglandin E2 receptor EP2 subtype (P43116 whole entry): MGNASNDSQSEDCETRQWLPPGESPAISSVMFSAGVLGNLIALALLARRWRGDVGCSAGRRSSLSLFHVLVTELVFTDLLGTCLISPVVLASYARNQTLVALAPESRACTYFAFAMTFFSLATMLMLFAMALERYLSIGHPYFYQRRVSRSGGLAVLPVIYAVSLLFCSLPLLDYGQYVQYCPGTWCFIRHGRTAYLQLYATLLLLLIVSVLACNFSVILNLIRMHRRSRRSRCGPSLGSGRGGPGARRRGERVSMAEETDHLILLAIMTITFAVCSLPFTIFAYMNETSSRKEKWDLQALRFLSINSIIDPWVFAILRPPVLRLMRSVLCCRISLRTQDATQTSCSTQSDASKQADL
Sequence of Cytochrome P450 3A4 (P08684 whole entry): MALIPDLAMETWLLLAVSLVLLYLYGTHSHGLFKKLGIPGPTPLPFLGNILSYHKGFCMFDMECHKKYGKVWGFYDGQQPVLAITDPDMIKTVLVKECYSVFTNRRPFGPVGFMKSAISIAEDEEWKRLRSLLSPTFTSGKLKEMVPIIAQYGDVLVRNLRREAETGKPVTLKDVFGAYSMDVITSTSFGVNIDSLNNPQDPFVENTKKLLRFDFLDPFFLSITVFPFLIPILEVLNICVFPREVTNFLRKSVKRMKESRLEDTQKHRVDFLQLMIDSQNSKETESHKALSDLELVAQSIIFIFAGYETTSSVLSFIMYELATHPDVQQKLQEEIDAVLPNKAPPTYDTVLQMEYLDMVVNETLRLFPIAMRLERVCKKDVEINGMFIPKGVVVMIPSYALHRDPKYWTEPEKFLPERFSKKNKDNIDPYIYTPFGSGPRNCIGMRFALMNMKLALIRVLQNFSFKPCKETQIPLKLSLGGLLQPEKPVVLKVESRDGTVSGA
Sequence of Prostaglandin E2 receptor EP4 subtype (Homo sapiens, UniProt P35408) (P35408 whole entry): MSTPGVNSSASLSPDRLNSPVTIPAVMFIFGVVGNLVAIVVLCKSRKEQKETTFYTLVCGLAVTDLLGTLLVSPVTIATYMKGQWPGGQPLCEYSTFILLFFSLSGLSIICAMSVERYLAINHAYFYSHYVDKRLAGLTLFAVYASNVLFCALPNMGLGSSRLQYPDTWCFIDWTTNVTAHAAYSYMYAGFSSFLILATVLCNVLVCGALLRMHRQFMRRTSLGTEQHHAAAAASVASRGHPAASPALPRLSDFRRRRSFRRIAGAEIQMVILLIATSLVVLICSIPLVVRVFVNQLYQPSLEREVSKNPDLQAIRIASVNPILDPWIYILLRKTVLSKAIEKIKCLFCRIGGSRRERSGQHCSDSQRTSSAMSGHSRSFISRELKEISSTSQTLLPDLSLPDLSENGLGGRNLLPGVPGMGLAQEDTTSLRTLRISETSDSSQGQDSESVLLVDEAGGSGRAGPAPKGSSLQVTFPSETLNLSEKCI
Sequence of CYP2E1 (P05181 whole entry): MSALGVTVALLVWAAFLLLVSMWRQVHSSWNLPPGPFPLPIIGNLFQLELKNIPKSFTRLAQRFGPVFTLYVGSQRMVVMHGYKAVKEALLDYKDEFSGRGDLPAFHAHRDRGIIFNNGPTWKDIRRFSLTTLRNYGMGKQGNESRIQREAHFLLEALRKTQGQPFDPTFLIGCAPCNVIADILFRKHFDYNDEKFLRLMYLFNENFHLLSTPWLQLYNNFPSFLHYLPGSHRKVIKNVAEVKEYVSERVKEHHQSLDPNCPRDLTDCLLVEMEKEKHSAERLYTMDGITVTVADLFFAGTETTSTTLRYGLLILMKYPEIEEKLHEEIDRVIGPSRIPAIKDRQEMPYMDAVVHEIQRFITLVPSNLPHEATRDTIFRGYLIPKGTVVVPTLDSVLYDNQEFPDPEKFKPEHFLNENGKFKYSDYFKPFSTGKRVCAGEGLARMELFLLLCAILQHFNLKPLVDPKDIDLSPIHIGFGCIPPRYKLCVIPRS
Sequence of CYP2C9 (P11712 whole entry): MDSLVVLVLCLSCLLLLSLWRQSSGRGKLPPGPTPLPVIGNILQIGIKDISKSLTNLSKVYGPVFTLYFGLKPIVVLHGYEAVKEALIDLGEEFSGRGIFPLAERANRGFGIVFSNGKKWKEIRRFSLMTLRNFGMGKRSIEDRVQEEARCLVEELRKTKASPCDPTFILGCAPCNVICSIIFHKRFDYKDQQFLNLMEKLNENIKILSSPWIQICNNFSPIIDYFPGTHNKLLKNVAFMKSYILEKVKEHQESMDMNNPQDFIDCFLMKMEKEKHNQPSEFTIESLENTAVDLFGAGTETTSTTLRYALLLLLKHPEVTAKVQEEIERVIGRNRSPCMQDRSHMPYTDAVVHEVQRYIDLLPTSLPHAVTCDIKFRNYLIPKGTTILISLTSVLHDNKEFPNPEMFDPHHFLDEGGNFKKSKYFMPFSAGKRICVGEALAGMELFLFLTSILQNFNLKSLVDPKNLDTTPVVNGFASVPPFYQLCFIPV

C/C=C/c1nnn(Cc2ccc(C(F)(F)F)cc2)c1C(=O)N[C@@H](C)c1ccc(C(=O)O)cc1
inhibition (INH) [1]: Not Active | inhibition at 1 h, 20 µM [2]: 66% | IC50 [3]: 16.2 nM | inhibition in vivo at 150 mg/kg [4]: 63.8% | inhibition at 1 h, 20 µM [5]: 23% | inhibition in vivo at 50 mg/kg [6]: 54.7% | remaining at 1 h, 10 µM [7]: 100% | IC50 [8]: > 10000 nM | inhibition at 1 h, 20 µM [9]: 33% | half-life at 1 h, 10 µM [10]: > 2.42 h | IC50 [11]: 5.2 nM | microsomal CLint at 1 h, 10 µM [12]: < 9.6 µL/min/mg | remaining at 1 h, 10 µM [13]: 82%
